# Laboratory results published in patent publication US7153870B2, “Nicotinamide derivatives useful as PDE4 inhibitors” (Pfizer Inc., priority 2003, dated 2006).
# Tested on: TNFα release from human peripheral blood mononuclear cells
# Test: Inhibition of LPS-stimulated TNFα release from human peripheral blood mononuclear cells (TNFα screen)
# Assay type: cell-based
# Details: LPS-stimulated human PBMC, 18 hours incubation, TNFα in supernatant by ELISA
# Description: Venous blood is collected from healthy volunteers and the mononuclear cells purified by centrifugation through Histopaque (Ficoll) cushions. TNFα production from these cells is stimulated by addition of lipopolysaccharide. After 18 hours incubation in the presence of LPS, the cell supernatant is removed and the concentration of TNFα in the supernatant determined by ELISA. Addition of PDE4 inhibitors reduces the amount of TNFα produced. An IC50 is determined which is equal to the concentration of compound that gives 50% inhibition of TNFα production as compared to the LPS stimulated control wells.
row,Compound,IC50 [pM]
1,"CSc1cccc(Oc2ncc(F)cc2C(=O)N[C@H]2CC[C@@H](NC(=O)c3cc4ccccn4n3)CC2)c1 [Example 1, Syn-Pyrazolo[1,5-a]pyridine-2-carboxylic acid(4-{[5-fluoro-2-(3-methylsulfanyl-phenoxy) -pyridine-3-carbonyl]-amino}-cyclohexyl)-amide]",100
2,"CSc1cccc(Oc2ncc(F)cc2C(=O)N[C@H]2CC[C@@H](NC(=O)c3cccn4ccnc34)CC2)c1 [Example 6, Syn-Imidazo[1,2-a]pyridine-8-carboxylic acid(4-{[5-fluoro-2-(3-methylsulfanyl-phenoxy) -pyridine-3-carbonyl]-amino}-cyclohexyl)-amide]",20
3,"CSc1cccc(Oc2ncc(F)cc2C(=O)N[C@H]2CC[C@@H](NC(=O)c3cccc4nn[nH]c34)CC2)c1 [Example 7, Syn-3H-Benzotriazole-4-carboxylic acid(4-{[5-fluoro-2-(3-methylsulfanyl-Phenoxy) -pyridine-3-carbonyl]-amino}-cyclohexyl)-amide]",400
4,"CSc1cccc(Oc2ncc(F)cc2C(=O)N[C@H]2CC[C@@H](NC(=O)c3cccc4cccnc34)CC2)c1 [Example 8, Syn-Quinoline-8-carboxylic acid(4-{[5-fluoro-2-(3-methylsulfanyl-phenoxy) -pyridine-3-carbonyl]-amino}-cyclohexyl)-amide]",250
5,"CSc1cccc(Oc2ncc(F)cc2C(=O)N[C@H]2CC[C@@H](NC(=O)c3cccc4cc(O)cnc34)CC2)c1 [Example 9, Syn-3-Hydroxy-quinoline-8-carboxylic acid(4-{[5-fluoro-2-(3-methylsulfanyl-phenoxy) -pyridine-3-carbonyl]-amino}-cyclohexyl)-amide]",150
6,"CSc1cccc(Oc2ncc(F)cc2C(=O)N[C@H]2CC[C@@H](NC(=O)c3nn(CCO)c4ccccc34)CC2)c1 [Example 10, Syn-1-(2-Hydroxy-ethyl)-1H-indazole-3-carboxylic acid(4-{[5-fluoro-2-(3-methylsulfanyl-phenoxy)-pyridine-3-carbonyl]-amino}-cyclohexyl)-amide]",300
7,Syn-1-Isopropyl-1H-benzoimidazole-4-carboxylic acid(4-{[5-fluoro-2-(3-methylsulfanyl-phenoxy)-pyridine-3-carbonyl]-amino}-cyclohexyl)-amide [Example 2],1000
8,Syn-1H-Indazole-3-carboxylic acid(4-{[5-fluoro-2-(3-methylsulfanyl-phenoxy) -pyridine-3-carbonyl]-amino}-cyclohexyl)-amide [Example 4],2000
9,Syn-2-Methyl-3H-benzoimidazole-4-carboxylic acid(4-{[5-fluoro-2-(3-methylsulfanyl-phenoxy)-pyridine-3-carbonyl]-amino}-cyclohexyl)-amide [Example 5],40
10,"Syn-Imidazo[1,2-a]pyridine-2-carboxylic acid(4-{[5-fluoro-2-(3-methylsulfanyl -phenoxy)-pyridine-3-carbonyl]-amino}-cyclohexyl)-amide [Example 3]",100
